Source: ChEMBL document CHEMBL3797034, “Design, synthesis and evaluation of novel tacrine-multialkoxybenzene hybrids as multi-targeted compounds against Alzheimer's disease” (Eur J Med Chem, 2016)
Activity calls are given as the source filed them. The rule behind the calls is not given here.

Columns and labels:
Acetylcholinesterase = Acetylcholinesterase (Electrophorus electricus, UniProt O42275)
Description: Inhibition of electric eel AChE using acetylthiocholine chloride as substrate preincubated for 20 mins followed by substrate addition by Ellman's method

Cholinesterase = Cholinesterase (Equus caballus, UniProt P81908)
Description: Inhibition of equine serum BuChE using butylthiocholine chloride as substrate preincubated for 20 mins followed by substrate addition by Ellman's method

[1] = biological target: Amyloid-beta precursor protein (Homo sapiens, UniProt P05067)
Sequence of Amyloid-beta precursor protein (P05067 whole entry): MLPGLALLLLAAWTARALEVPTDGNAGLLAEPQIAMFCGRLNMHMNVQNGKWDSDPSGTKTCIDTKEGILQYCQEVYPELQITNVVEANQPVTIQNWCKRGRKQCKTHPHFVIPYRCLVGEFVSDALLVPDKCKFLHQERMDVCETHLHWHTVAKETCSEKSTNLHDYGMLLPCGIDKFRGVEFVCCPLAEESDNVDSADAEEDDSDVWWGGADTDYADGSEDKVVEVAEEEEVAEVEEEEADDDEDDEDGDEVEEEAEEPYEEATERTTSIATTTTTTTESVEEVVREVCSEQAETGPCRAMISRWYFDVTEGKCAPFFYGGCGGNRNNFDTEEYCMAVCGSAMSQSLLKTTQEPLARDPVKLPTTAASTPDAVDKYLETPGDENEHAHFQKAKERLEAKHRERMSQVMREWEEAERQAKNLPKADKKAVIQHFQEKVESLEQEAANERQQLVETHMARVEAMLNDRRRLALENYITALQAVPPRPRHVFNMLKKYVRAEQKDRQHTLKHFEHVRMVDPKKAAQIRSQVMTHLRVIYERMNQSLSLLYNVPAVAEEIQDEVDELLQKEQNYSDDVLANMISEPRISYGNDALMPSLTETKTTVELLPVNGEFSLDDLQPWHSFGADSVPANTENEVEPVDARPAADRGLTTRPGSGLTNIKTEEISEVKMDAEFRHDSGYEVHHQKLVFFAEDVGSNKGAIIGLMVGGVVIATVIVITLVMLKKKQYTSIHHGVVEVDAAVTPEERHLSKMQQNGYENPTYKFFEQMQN
Description: Inhibition of self-mediated amyloid beta (1 to 42) (unknown origin) aggregation after 24 hrs by thioflavin T fluorescence assay

[2] = biological target: Acetylcholinesterase (Electrophorus electricus) (UniProt O42275); test: Mixed inhibition of electric eel AChE using acetylthiocholine chloride as substrate preincubated for 20 mins followed by substrate addition by Lineweaver-burk plot analysis
Sequence of Acetylcholinesterase (Electrophorus electricus) (O42275 24-633 limits assumed): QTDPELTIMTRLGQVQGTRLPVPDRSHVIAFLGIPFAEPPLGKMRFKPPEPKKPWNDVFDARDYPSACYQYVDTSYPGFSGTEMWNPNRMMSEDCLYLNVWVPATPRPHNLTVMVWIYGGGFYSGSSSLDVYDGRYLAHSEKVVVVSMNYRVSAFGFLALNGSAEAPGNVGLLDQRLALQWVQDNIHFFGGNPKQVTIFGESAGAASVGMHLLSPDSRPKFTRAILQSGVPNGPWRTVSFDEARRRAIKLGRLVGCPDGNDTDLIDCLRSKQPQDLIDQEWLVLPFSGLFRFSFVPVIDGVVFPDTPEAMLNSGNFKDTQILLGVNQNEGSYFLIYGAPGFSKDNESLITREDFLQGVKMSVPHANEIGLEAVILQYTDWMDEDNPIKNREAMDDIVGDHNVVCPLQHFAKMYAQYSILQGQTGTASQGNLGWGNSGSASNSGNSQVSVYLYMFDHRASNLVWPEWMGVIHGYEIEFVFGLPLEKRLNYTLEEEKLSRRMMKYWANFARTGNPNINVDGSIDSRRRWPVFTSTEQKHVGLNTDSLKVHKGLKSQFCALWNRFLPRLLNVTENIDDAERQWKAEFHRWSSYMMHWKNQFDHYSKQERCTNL

[3] = biological target: Acetylcholinesterase (Electrophorus electricus) (UniProt O42275); test: Reversible inhibition of electric eel AChE using acetylthiocholine chloride as substrate preincubated for 20 mins followed by substrate addition by Lineweaver-burk plot analysis

Sequence of Acetylcholinesterase (O42275 whole entry): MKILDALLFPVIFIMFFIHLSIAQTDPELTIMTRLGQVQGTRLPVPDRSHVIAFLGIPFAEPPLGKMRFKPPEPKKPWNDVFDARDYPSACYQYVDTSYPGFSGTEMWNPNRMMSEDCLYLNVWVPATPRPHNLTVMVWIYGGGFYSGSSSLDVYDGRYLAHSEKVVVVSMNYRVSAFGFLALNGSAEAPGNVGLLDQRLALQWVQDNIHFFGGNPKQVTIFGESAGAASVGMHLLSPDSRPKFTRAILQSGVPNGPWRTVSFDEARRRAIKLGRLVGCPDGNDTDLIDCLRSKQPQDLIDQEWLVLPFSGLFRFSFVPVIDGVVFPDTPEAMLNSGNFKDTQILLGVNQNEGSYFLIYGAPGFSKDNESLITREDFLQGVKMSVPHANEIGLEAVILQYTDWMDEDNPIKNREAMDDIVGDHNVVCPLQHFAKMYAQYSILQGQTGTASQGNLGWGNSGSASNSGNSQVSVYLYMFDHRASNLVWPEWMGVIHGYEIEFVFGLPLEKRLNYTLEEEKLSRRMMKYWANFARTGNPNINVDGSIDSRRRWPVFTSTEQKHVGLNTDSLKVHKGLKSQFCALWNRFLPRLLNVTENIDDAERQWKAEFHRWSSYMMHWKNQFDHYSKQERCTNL
Sequence of Cholinesterase (P81908 whole entry): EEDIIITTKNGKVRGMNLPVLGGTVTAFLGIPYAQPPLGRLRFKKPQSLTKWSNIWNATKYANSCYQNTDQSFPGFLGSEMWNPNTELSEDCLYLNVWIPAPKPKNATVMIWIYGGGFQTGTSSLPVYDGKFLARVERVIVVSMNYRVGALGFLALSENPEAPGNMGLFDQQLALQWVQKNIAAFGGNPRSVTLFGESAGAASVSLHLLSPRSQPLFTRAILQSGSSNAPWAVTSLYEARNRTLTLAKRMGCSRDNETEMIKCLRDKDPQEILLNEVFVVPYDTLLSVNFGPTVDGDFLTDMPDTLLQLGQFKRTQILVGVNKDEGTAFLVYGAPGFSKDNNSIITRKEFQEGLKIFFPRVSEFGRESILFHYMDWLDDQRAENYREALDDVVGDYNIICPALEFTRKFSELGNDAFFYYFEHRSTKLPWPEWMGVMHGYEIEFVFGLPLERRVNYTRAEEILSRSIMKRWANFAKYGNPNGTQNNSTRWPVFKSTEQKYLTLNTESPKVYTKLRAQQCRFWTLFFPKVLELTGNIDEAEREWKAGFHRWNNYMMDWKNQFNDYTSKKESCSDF

SMILES | IC50 (Acetylcholinesterase) | IC50 (Cholinesterase) | IC50 [1] | inhibition [2] | inhibition [3]
COc1ccc(C(=O)OCC(=O)Nc2c3c(nc4ccccc24)CCCC3)c(OC)c1OC | 15.5 nM | 255 nM | 65.5 nM |  | 
O=C(COC(=O)/C=C/c1ccc(Cl)cc1)Nc1c2c(nc3ccccc13)CCCC2 | 213 nM | 542 nM | 51.8 nM |  | 
O=C(COC(=O)c1ccc(O)c(O)c1)Nc1c2c(nc3ccccc13)CCCC2 | 133 nM | 344 nM | 17.4 nM |  | 
COc1cc(/C=C/C(=O)OCC(=O)Nc2c3c(nc4ccccc24)CCCC3)cc(OC)c1OC | 16.9 nM | 299 nM | 45.9 nM |  | 
O=C(COC(=O)Cc1c[nH]c2ccccc12)Nc1c2c(nc3ccccc13)CCCC2 | 8.13 nM | 292 nM | 39 nM |  | 
COc1ccc(CC(=O)OCC(=O)Nc2c3c(nc4ccccc24)CCCC3)cc1OC | 65.1 nM | 554 nM | 22.5 nM |  | 
COc1cc(C(=O)OCC(=O)Nc2c3c(nc4ccccc24)CCCC3)ccc1O | 70.1 nM | 319 nM | 37.4 nM |  | 
COc1cc(C(=O)OCC(=O)Nc2c3c(nc4ccccc24)CCCC3)cc(OC)c1OC | 8.46 nM | 329 nM | 30.7 nM |  | 
COc1ccc(CC(=O)OCC(=O)Nc2c3c(nc4ccccc24)CCCC3)c(OC)c1OC | 5.63 nM | 364 nM | 51.8 nM | Active | Active
O=C(COC(=O)Cc1ccc(O)cc1)Nc1c2c(nc3ccccc13)CCCC2 | 74 nM | 239 nM | 45.3 nM |  | 
COc1cc(OC)cc(C(=O)OCC(=O)Nc2c3c(nc4ccccc24)CCCC3)c1 | 15.7 nM | 224 nM | 55.9 nM |  | 
COc1ccc(/C=C/C(=O)OCC(=O)Nc2c3c(nc4ccccc24)CCCC3)cc1OC | 16.2 nM | 159 nM | 49.1 nM |  | 
O=C(COC(=O)Cc1ccc(Cl)cc1)Nc1c2c(nc3ccccc13)CCCC2 | 183 nM | 218 nM | 77.5 nM |  | 
COc1ccc(CC(=O)OCC(=O)Nc2c3c(nc4ccccc24)CCCC3)cc1 | 25.3 nM | 319 nM | 71.3 nM |  | 
COc1ccc(/C=C/C(=O)OCC(=O)Nc2c3c(nc4ccccc24)CCCC3)cc1O | 74.9 nM | 355 nM | 46.1 nM |  | 
